From patent US20210038688A1, “ICAM-1 MARKER AND APPLICATION THEREOF” (Shanghai Institute of Nutrition and Health, Chinese Academy …, priority 2018, published 2021)

Tests used:
[1] = test system: wild-type adipose stem cells; assay: in vitro adipogenic differentiation of adipose stem cells derived from WT mice (oil red staining, Western blot, Real time PCR); type: cell-based
Protocol: (§1) FIG. 6E and FIG. 6F respectively show the mRNA levels of Pparg (FIG. 6E) and Fabp4 (FIG. 6F) after adipogenic differentiation of WT and ICAM-1^−/− mice-derived adipose stem cells under […] or DMSO treatment, using Real time PCR.
(§2) Cultivation of adipose stromal cells The sorted CD31^−CD45^−Sca-1^+PDGFR-α^+ adipose stromal cells as well as CD31^−CD45^−Sca-[…]-1^− and other components were cultured in DMEM low-sugar medium supplemented with 10% FBS alone or in combination. In some experiments, adherent adipose mononuclear cells were directly cultured in DMEM low-sugar medium supplemented with 10% FBS, and immune cells and vascular endothelial cells were removed during the medium exchange and passage steps to obtain simple adipose stromal cells.
(§3) For preparing differentiation medium, 0.5 mM 3-isobutyl-1-methylxanthine (IBMX), 50 μM indomethacin, 10 μg/ml insulin and 0.5 μM dexamethasone were added to 10% FBS of DMEM high glucose medium. When the adipose stromal cells grew to 100% confluence, the differentiation medium was changed and the medium was changed every two days, and it was taken about 5 days until differentiation was completed.
(§4) Rho and ROCK can negatively regulate adipogenic differentiation in a cytoskeleton-dependent or insulin signal-dependent manner, and our RNA-seq data also supports the role of Rho GTPase in adipose differentiation. In order to test whether Rho and ROCK are involved in the inhibitory effect of ICAM-1 on adipogenic differentiation of adipose stem cells, we used ROCK inhibitor Y-27632 to treat adipose stem cells respectively. […] Therefore, ICAM-1 inhibits the adipogenic differentiation of adipose stem cells through the Rho-ROCK pathway.
(§5) In order to verify whether Rho GTPase activity can reverse the excessive adipogenic differentiation caused by ICAM-1 deletion, we used the Rho agonist Rho activator II (RA2), which can constitutively activate RhoGTPase. […] It is important that the difference in the expression of adipogenic differentiation genes between wild-type and ICAM-1^−/− cells is eliminated by Rho

[2] = test system: ICAM-1−/− adipose stem cells; assay: in vitro adipogenic differentiation of adipose stem cells derived from ICAM-1−/− mice (oil red staining, Western blot, Real time PCR); type: cell-based
Protocol: as §1, §2, §3, §4, §5

ICAM-1−/− mice = assay: local RA2 injection into right inguinal fat pad of ICAM-1−/− mice with high-fat diet induced obesity; type: in vivo; details: RA2 locally into right inguinal fat pad, 10 weeks
Protocol: (§6) FIG. 6L-6N respectively show the visual observation result (FIG. 6L), adipose tissue observation result (FIG. 6M) and statistical analysis of changes in subcutaneous adipose tissue weight (6N) in the right subcutaneous adipose tissue of WT mice and ICAM-1^−/− mice that were given a high-fat diet induced obesity is injected with RA2 (every 2 days, […]).
(§7) This asymmetry is not observed in RA2-treated WT mice and PBS-treated mice (FIG. 6L).

WT mice = assay: local RA2 injection into right inguinal fat pad of WT mice with high-fat diet induced obesity; type: in vivo; details: RA2 locally into right inguinal fat pad, 10 weeks
Protocol: as §6, §7

human adipose stem cells = assay: adipogenic differentiation induction of human primary adipose stromal cells (ICAM-1 siRNA knockdown, RA2); type: cell-based; details: RA2 treatment during differentiation; FIG. 7H-J
Protocol: FIGS. 7F-7G respectively show the adipogenic differentiation-related gene expression and Rho GTP activity of adipose stem cells during adipogenic differentiation with the expression of ICAM-1 interfered.
FIGS. 7H-7J respectively show the expressions of adipogenic differentiation-related genes (PPARG, CEBPA, FABP4) in adipose stem cells observed with RA2 activated Rho after interfering with ICAM-1 expression.
as §3
First, the expression content of ICAM-1 in human adipose tissue was analyzed. Currently, there is no recognized characteristic molecule of human preadipocytes. […] These ICAM-1^+ cells, like adipose tissue in mice, are mainly located around blood vessels (FIG. 7B). To test the regulatory effect of ICAM-1 on human adipose stem cells, we isolated human primary adipose stromal cells for adipogenic differentiation induction. […]

Molecule	adipogenic differentiation (oil red staining) ([1]; 10 μM Y-27632 compared with DMSO-treated group, wild-type cells, FIG. 6C)	expression level of Perilipin A protein (Western blot) ([1]; Y-27632 vs DMSO, wild-type cells after adipogenic differentiation)	expression of adipogenic differentiation-related proteins and genes (Perilipin A, Pparg, Fabp4) ([1]; inhibiting ROCK (Y-27632 vs DMSO), wild-type cells, FIG. 6D-F)	adipogenic differentiation (oil red staining) ([2]; 10 μM Y-27632 compared with DMSO-treated group, ICAM-1−/− cells, FIG. 6C)	expression level of Perilipin A protein (Western blot) ([2]; Y-27632 vs DMSO, ICAM-1−/− cells after adipogenic differentiation)	expression of adipogenic differentiation-related proteins and genes (Perilipin A, Pparg, Fabp4) ([2]; inhibiting ROCK (Y-27632 vs DMSO), ICAM-1−/− cells, FIG. 6D-F)	adipogenic differentiation ability (oil red staining) ([1]; RA2 added during in vitro differentiation, wild-type cells, FIG. 6G)	adipogenic differentiation genes Pparg, Cebpa, Fabp4, Plin1 (mRNA, Real time PCR) ([1]; Rho GTPase activation by RA2, wild-type cells, FIG. 6H-K)	adipogenic differentiation ability (oil red staining) ([2]; RA2 added during in vitro differentiation, ICAM-1−/− cells, FIG. 6G)	difference in the expression of adipogenic differentiation genes between wild-type and ICAM-1−/− cells ([2]; Rho GTPase activation by RA2, FIG. 6H-K)	adipogenic differentiation genes Pparg, Cebpa, Fabp4, Plin1 (mRNA, Real time PCR) ([2]; Rho GTPase activation by RA2, ICAM-1−/− precursor cells, FIG. 6H-K)	excessive adipogenic differentiation (inguinal fat pads, injected right vs left side) (ICAM-1−/− mice; FIG. 6L)	fat weight (subcutaneous adipose tissue) (ICAM-1−/− mice; every 2 days, FIG. 6M-N)	asymmetry of inguinal fat pads on both sides (WT mice; FIG. 6L)	fat weight (subcutaneous adipose tissue) (WT mice; every 2 days, FIG. 6M-N)	enhancement of adipogenic differentiation of ICAM-1 knock-down cells (PPARG, CEBPA, FABP4 expression) (human adipose stem cells)
C[C@@H](N)[C@H]1CC[C@H](C(=O)Nc2ccncc2)CC1 [Y-27632]	significantly accelerate	significantly increase	significantly increase	no obvious effect	little effect	not obvious										
Rho activator II [RA2]							not obvious	only Pparg and Fabp4 are significantly changed	significantly inhibited	eliminated	extensive reduction	weakened	significantly reduce	not observed	not	eliminated
